IC50 and Binding constant data for five compounds are collected here from ChEMBL document CHEMBL1139635, “Synthesis, antitumor evaluation and DNA photocleaving activity of novel methylthiazonaphthalimides with aminoalkyl side chains” (Bioorg Med Chem Lett, 2005).

One assay has as its system A549. Briefly: Cytotoxic concentration against human A549 lung cancer cell line determined by sulforhodamine B dye-staining method. It is filed as functional, cell-based. (In SRB staining, fixed cells bind dye roughly in proportion to their protein.)
The test system of another assay is Nucleic Acid. In words: Scatchard binding constant towards calf thymus DNA. Type of assay: functional. Conditions: Bos taurus.
In the next assay the test system is P388. Briefly: Cytotoxic concentration against murine P388 leukemia cell line growth determined by microculture tetrazolium-formazan method. Type of assay: functional, cell-based. Conditions: Mus musculus.

For orientation: IC50 means the concentration that gives 50% inhibition. A lower IC50 goes with greater potency. Consider `Cc1nc2cc3c4c(cccc4c2s1)C(=O)N(CCN(C)C)C3=O`, for which the IC50 in the assay with A549 was 82.8 nM; in the assay on P388, 31 nM. Besides, the Binding constant in the assay with Nucleic Acid amounted to 231000 M⁻¹.
As to `CCN(CC)CCN1C(=O)c2cccc3c2c(cc2nc(C)sc23)C1=O`, the values for the half-inhibitory concentration (IC50) with A549 and in the assay on P388 were 158 nM and 640 nM, respectively. The compound also showed a Binding constant in the assay with Nucleic Acid of 166000 M⁻¹.
As to `Cc1nc2cc3c4c(cccc4c2s1)C(=O)N(CCN1CCNCC1)C3=O`, the IC50 in the assay on A549 stood at 20.8 nM; in the assay with P388, 1130 nM. The compound also showed a Binding constant in the assay on Nucleic Acid of 226000 M⁻¹.
For `Cc1nc2cc3c4c(cccc4c2s1)C(=O)N(CCCN(C)C)C3=O` the same measures were 1800 nM, 1700 nM and 666000 M⁻¹.
Regarding `CN(C)CCN1C(=O)c2cccc3cc(N)cc(c23)C1=O` [AMONAFIDE], the IC50 with P388 is 200 nM.
